# Laboratory results: PubChem BioAssay AID1259407 (Chemical Carcinogenesis Research Information System (CCRIS), 2018)
# Active and inactive are the calls of the source. How the calls were made is not given here.
# Test system: CCRIS mutagenicity, Ames/micronucleus/aberration tests
# Test: CCRIS mutagenicity studies
# [1] = Test System: AMES SALMONELLA TYPHIMURIUM, Strain/Indicator: TA98, Metabolic Activation: HAMSTER, LIVER, S-9, AROCLOR 1254 (10%), Method: PREINCUBATION
# [2] = Test System: AMES SALMONELLA TYPHIMURIUM, Strain/Indicator: TA98, Metabolic Activation: NONE, Method: PREINCUBATION
# [3] = Test System: AMES SALMONELLA TYPHIMURIUM, Strain/Indicator: TA98, Metabolic Activation: RAT, LIVER, S-9, AROCLOR 1254 (10%), Method: PREINCUBATION
# [4] = Test System: AMES SALMONELLA TYPHIMURIUM, Strain/Indicator: TA100, Metabolic Activation: HAMSTER, LIVER, S-9, AROCLOR 1254 (10%), Method: PREINCUBATION
# [5] = Test System: AMES SALMONELLA TYPHIMURIUM, Strain/Indicator: TA100, Metabolic Activation: NONE, Method: PREINCUBATION
# [6] = Test System: AMES SALMONELLA TYPHIMURIUM, Strain/Indicator: TA100, Metabolic Activation: RAT, LIVER, S-9, AROCLOR 1254 (10%), Method: PREINCUBATION
# [7] = Test System: AMES SALMONELLA TYPHIMURIUM, Strain/Indicator: TA1535, Metabolic Activation: NONE, Method: PREINCUBATION
# [8] = Test System: AMES SALMONELLA TYPHIMURIUM, Strain/Indicator: TA1537, Metabolic Activation: NONE, Method: PREINCUBATION
# [9] = Test System: AMES SALMONELLA TYPHIMURIUM, Strain/Indicator: TA97, Metabolic Activation: NONE, Method: PREINCUBATION
# [10] = Test System: AMES SALMONELLA TYPHIMURIUM, Strain/Indicator: TA1535, Metabolic Activation: HAMSTER, LIVER, S-9, AROCLOR 1254 (10 OR 30%), Method: PREINCUBATION
# [11] = Test System: AMES SALMONELLA TYPHIMURIUM, Strain/Indicator: TA1535, Metabolic Activation: RAT, LIVER, S-9, AROCLOR 1254 (10 OR 30%), Method: PREINCUBATION
compound,measurement,setting,value
COc1ccc(CN(CCN(C)C)c2ncccn2)cc1,mutagenic call,[1],inactive; negative
same,mutagenic call,[2],inactive; negative
same,mutagenic call,[3],inactive; negative
same,mutagenic call,[4],inactive; negative
same,mutagenic call,[5],inactive; negative
same,mutagenic call,[6],inactive; negative
same,mutagenic call,"Test System: AMES SALMONELLA TYPHIMURIUM, Strain/Indicator: TA1535, Metabolic Activation: HAMSTER, LIVER, S-9, AROCLOR 1254 (10%), Method: PREINCUBATION",inactive; negative
same,mutagenic call,[7],inactive; negative
same,mutagenic call,"Test System: AMES SALMONELLA TYPHIMURIUM, Strain/Indicator: TA1535, Metabolic Activation: RAT, LIVER, S-9, AROCLOR 1254 (10%), Method: PREINCUBATION",inactive; negative
same,mutagenic call,"Test System: AMES SALMONELLA TYPHIMURIUM, Strain/Indicator: TA1537, Metabolic Activation: HAMSTER, LIVER, S-9, AROCLOR 1254 (10%), Method: PREINCUBATION",inactive; negative
same,mutagenic call,[8],inactive; negative
same,mutagenic call,"Test System: AMES SALMONELLA TYPHIMURIUM, Strain/Indicator: TA1537, Metabolic Activation: RAT, LIVER, S-9, AROCLOR 1254 (10%), Method: PREINCUBATION",inactive; negative
CN(Cc1cccc(Cl)c1)N=O,mutagenic call,"Test System: AMES SALMONELLA TYPHIMURIUM, Strain/Indicator: TA1535, Metabolic Activation: HAMSTER, LIVER, S-9, AROCLOR 1254, Method: STANDARD PLATE",active; positive
same,mutagenic call,"Test System: AMES SALMONELLA TYPHIMURIUM, Strain/Indicator: TA1535, Metabolic Activation: NONE, Method: STANDARD PLATE",inactive; negative
Nc1ccc(-c2cc(Cl)c(N)cc2[N+](=O)[O-])cc1Cl,mutagenic call,"Test System: Ames Salmonella typhimurium, Strain/Indicator: TA98, Metabolic Activation: None, Method: Preincubation",active; positive. weak response.
same,mutagenic call,"Test System: Ames Salmonella typhimurium, Strain/Indicator: TA98, Metabolic Activation: Rat, Liver, S-9, Phenobarbital and 5,6-benzoflavone, Method: Preincubation",active; positive
same,mutagenic call,"Test System: Ames Salmonella typhimurium, Strain/Indicator: TA100, Metabolic Activation: None, Method: Preincubation",inactive; negative
same,mutagenic call,"Test System: Ames Salmonella typhimurium, Strain/Indicator: TA100, Metabolic Activation: Rat, Liver, S-9, Phenobarbital and 5,6-benzoflavone, Method: Preincubation",active; positive. weak response.
same,mutagenic call,"Test System: Ames Salmonella typhimurium, Strain/Indicator: YG1024, Metabolic Activation: None, Method: Preincubation",active; positive
same,mutagenic call,"Test System: Ames Salmonella typhimurium, Strain/Indicator: YG1024, Metabolic Activation: Rat, Liver, S-9, Phenobarbital and 5,6-benzoflavone, Method: Preincubation",active; positive
same,mutagenic call,"Test System: Ames Salmonella typhimurium, Strain/Indicator: YG1029, Metabolic Activation: None, Method: Preincubation",inactive; negative
same,mutagenic call,"Test System: Ames Salmonella typhimurium, Strain/Indicator: YG1029, Metabolic Activation: Rat, Liver, S-9, Phenobarbital and 5,6-benzoflavone, Method: Preincubation",active; positive. weak response.
Clc1cccc(-c2ccc(Cl)c(Cl)c2Cl)c1Cl,mutagenic call,"Test System: AMES SALMONELLA TYPHIMURIUM, Strain/Indicator: TA97, Metabolic Activation: HAMSTER, LIVER, S-9, AROCLOR 1254 (10 OR 30%), Method: PREINCUBATION",inactive; negative
same,mutagenic call,[9],inactive; negative
same,mutagenic call,"Test System: AMES SALMONELLA TYPHIMURIUM, Strain/Indicator: TA97, Metabolic Activation: RAT, LIVER, S-9, AROCLOR 1254 (10 OR 30%), Method: PREINCUBATION",inactive; negative
same,mutagenic call,"Test System: AMES SALMONELLA TYPHIMURIUM, Strain/Indicator: TA98, Metabolic Activation: HAMSTER, LIVER, S-9, AROCLOR 1254 (10 OR 30%), Method: PREINCUBATION",inactive; negative
same,mutagenic call,[2],inactive; negative
same,mutagenic call,"Test System: AMES SALMONELLA TYPHIMURIUM, Strain/Indicator: TA98, Metabolic Activation: RAT, LIVER, S-9, AROCLOR 1254 (10 OR 30%), Method: PREINCUBATION",inactive; negative
same,mutagenic call,"Test System: AMES SALMONELLA TYPHIMURIUM, Strain/Indicator: TA100, Metabolic Activation: HAMSTER, LIVER, S-9, AROCLOR 1254 (10 OR 30%), Method: PREINCUBATION",inactive; negative
same,mutagenic call,[5],inactive; negative
same,mutagenic call,"Test System: AMES SALMONELLA TYPHIMURIUM, Strain/Indicator: TA100, Metabolic Activation: RAT, LIVER, S-9, AROCLOR 1254 (10 OR 30%), Method: PREINCUBATION",inactive; negative
same,mutagenic call,[10],inactive; negative
same,mutagenic call,[7],inactive; negative
same,mutagenic call,[11],inactive; negative
same,mutagenic call,"Test System: AMES SALMONELLA TYPHIMURIUM, Strain/Indicator: TA1537, Metabolic Activation: HAMSTER, LIVER, S-9, AROCLOR 1254 (10 OR 30%), Method: PREINCUBATION",inactive; negative
same,mutagenic call,[8],inactive; negative
same,mutagenic call,"Test System: AMES SALMONELLA TYPHIMURIUM, Strain/Indicator: TA1537, Metabolic Activation: RAT, LIVER, S-9, AROCLOR 1254 (10 OR 30%), Method: PREINCUBATION",inactive; negative
same,mutagenic call,"Test System: E. COLI, Strain/Indicator: WP2 UVRA, Metabolic Activation: HAMSTER, LIVER, S-9, AROCLOR 1254, Method: STANDARD PLATE",inactive; negative
same,mutagenic call,"Test System: E. COLI, Strain/Indicator: WP2 UVRA, Metabolic Activation: HAMSTER, LIVER, S-9, Method: STANDARD PLATE",inactive; negative
same,mutagenic call,"Test System: E. COLI, Strain/Indicator: WP2 UVRA, Metabolic Activation: MOUSE, LIVER, S-9, AROCLOR 1254, Method: STANDARD PLATE",inactive; negative
same,mutagenic call,"Test System: E. COLI, Strain/Indicator: WP2 UVRA, Metabolic Activation: MOUSE, LIVER, S-9, Method: STANDARD PLATE",inactive; negative
same,mutagenic call,"Test System: E. COLI, Strain/Indicator: WP2 UVRA, Metabolic Activation: NONE, Method: STANDARD PLATE",inactive; negative
same,mutagenic call,"Test System: E. COLI, Strain/Indicator: WP2 UVRA, Metabolic Activation: RAT, LIVER, S-9, AROCLOR 1254, Method: STANDARD PLATE",inactive; negative
same,mutagenic call,"Test System: E. COLI, Strain/Indicator: WP2 UVRA, Metabolic Activation: RAT, LIVER, S-9, Method: STANDARD PLATE",inactive; negative
S=c1[nH]c2ccccc2[nH]1,mutagenic call,"Test System: AMES SALMONELLA TYPHIMURIUM, Strain/Indicator: TA97, Metabolic Activation: HAMSTER, LIVER, S-9, AROCLOR 1254 (10%), Method: PREINCUBATION",inactive; negative
same,mutagenic call,"Test System: AMES SALMONELLA TYPHIMURIUM, Strain/Indicator: TA97, Metabolic Activation: HAMSTER, LIVER, S-9, AROCLOR 1254 (30%), Method: PREINCUBATION",inactive; negative
same,mutagenic call,[9],inactive; negative
same,mutagenic call,"Test System: AMES SALMONELLA TYPHIMURIUM, Strain/Indicator: TA97, Metabolic Activation: RAT, LIVER, S-9, AROCLOR 1254 (10%), Method: PREINCUBATION",inactive; negative
same,mutagenic call,"Test System: AMES SALMONELLA TYPHIMURIUM, Strain/Indicator: TA97, Metabolic Activation: RAT, LIVER, S-9, AROCLOR 1254 (30%), Method: PREINCUBATION",inactive; negative
same,mutagenic call,[1],inactive; negative
same,mutagenic call,"Test System: AMES SALMONELLA TYPHIMURIUM, Strain/Indicator: TA98, Metabolic Activation: HAMSTER, LIVER, S-9, AROCLOR 1254 (30%), Method: PREINCUBATION",inactive; negative
same,mutagenic call,[2],inactive; negative
same,mutagenic call,[3],inactive; negative
same,mutagenic call,"Test System: AMES SALMONELLA TYPHIMURIUM, Strain/Indicator: TA98, Metabolic Activation: RAT, LIVER, S-9, AROCLOR 1254 (30%), Method: PREINCUBATION",inactive; negative
same,mutagenic call,[4],inactive; negative
same,mutagenic call,"Test System: AMES SALMONELLA TYPHIMURIUM, Strain/Indicator: TA100, Metabolic Activation: HAMSTER, LIVER, S-9, AROCLOR 1254 (30%), Method: PREINCUBATION",inactive; negative
same,mutagenic call,[5],inactive; negative
same,mutagenic call,[6],inactive; negative
same,mutagenic call,"Test System: AMES SALMONELLA TYPHIMURIUM, Strain/Indicator: TA100, Metabolic Activation: RAT, LIVER, S-9, AROCLOR 1254 (30%), Method: PREINCUBATION",inactive; negative
same,mutagenic call,[10],inactive; negative
same,mutagenic call,[7],inactive; negative
same,mutagenic call,[11],inactive; negative
